Source: patent US8933142B2, “Low-extractable thioxanthones” (Lamberti Spa, priority 2010, dated 2015)

Tests used:
[1] = Photo DSC reactivity in tripropylene glycol diacrylate; conditions: for Peak height / ΔH (peak area): 0.1% w/w compound, 0.1% w/w EDB, LED 400 nm, 24.3 mW/cm^2; for ΔH of polymerization of isomer 3 relative to isomer 1: Photo DSC peak area; for ΔH of polymerization of isomer 3 relative to isomer 1 / Reactivity of isomer 3 relative to isomer 1: isomer 3 versus isomer 1; for Reactivity of isomer 3 relative to isomer 1: Photo DSC peak height
Description: Comparison of the reactivity of the 1 and 3 derivatives of thioxanthone by means of Photo DSC.
The compound of Example 1 (dodecyl 7-methyl-9-oxo-9H-thioxanthene-3-carboxylate) and the compound of Example 8 (dodecyl 7-methyl-9-oxo-9H-thioxanthene-1-carboxylate, comparative) were formulated and evaluated by PhotoDSC.
The compound of Example 5 (N,N-diisobutyl-7-methyl-9-oxo-9H-thioxanthene-3-carboxamide) and the compound of Example 7 (N,N-diisobutyl-7-methyl-9-oxo-9H-thioxanthene-1-carboxamide, comparative) were also formulated and compared by PhotoDSC.
The formulations were prepared dissolving in tripropylene glycol diacrylate the compounds described in the Examples 1, 8, 5 and 7 at a concentration of 0.1% w/w and EDB (Ethyl 4-dimethylamino-benzoate) at a concentration of 0.1% w/w.
About 1 mg of formulation (exactly weighted) was kept into a DSC aluminum panel and analyzed by a Mettler DSC1 calorimeter equipped with a 400 nm LED with a power of 450 mW. The LED was set in order to irradiate the formulation with an intensity of 24.3 mW/cm^2.
During the exposition to LED at 400 nm the heat developed from the polymerization of formulations prepared with the compounds described in the Examples 1, 8, 5 and 7 was recorded as peak height and peak area (ΔH). The peak height is proportional to the rate of polymerization: higher is the peak—faster is the polymerization.

[2] = FT-IR degree of polymerization in a pigmented photopolymerizable composition (as photoinitiator); conditions: 3% photoinitiator, 3% Esacure A198, cyan ink, 3 μm film, Hg/Xe lamp 120 W/cm
Description: Evaluation of the Derivatives of Thioxanthone in a Pigmented Photopolymerizable Composition by Means of FT-IR.
Pigmented photopolymerizable compositions are prepared by mixing 3% by weight of both the photoinitiators of formula I (Examples 1-6) and the coinitiator Esacure A198 (bis-N,N-[4-dimethyl aminobenzoyl)oxyethylen-1-yl]-methylamine), commercialized by Lamberti S.p.A, and up to 100% by weight of a cyan ink for off-set inking.
Isopropyl thioxanthone (ITX) is chosen as reference photoinitiator.
The photopolymerizable compositions are milled with a three cylinders mill (laboratory scale) in order to homogenize the mix and applied with a thickness of 3 μm on a soft polyethylene substrate by means of a film coater (RK Print Coater Instrument Ltd).
The sample, placed in the sample lodgment of a FT-IR (FT-IR 430-Jasco), is exposed to a Mercury/Xenon Vapors light source at high pressure to 120 W/cm (L8868 Light-cure, Hamamatsu) set at a distance of 8 cm from the sample and at an angle of 30°.
IR spectra are acquired at constant time intervals during the photopolymerization and the reduction over time of the peak area at 1408 cm^−1 assigned to the acrylic double bond was determined by IR software (Perkin Elmer, Spectrum ONE v. 2.0). This allows to quantify the degree of polymerization over the time and therefore the efficiency of the photoinitiator.

[3] = Formulability through solubility in methylene chloride; conditions: room temperature, stirring
Description: 10 g of the thioxanthone derivatives under investigation are weighed and suspended in the same amount of solvent; the mixture is maintained under stirring at room temperature.
After 2 min the clearness of the solution is evaluated: if the sample is not dissolved further aliquots of solvent are added, keeping the mixture under stirring for two min after each addition until complete solubilization.

[4] = Through-cure (thumb twist test), as sensitizer; conditions: 0.5% thioxanthone derivative, 3% Esacure A 198, 3% Esacure 1001, cyan ink, 3 μm on coated cardboard, Hg lamp 120 W/cm
Description: (§1) Evaluation of “Through-Cure”
(§2) The “through cure” test evaluates the degree of cross-linking of the deeper layers of the formulate (film) spread on the substrate. The film is considered completely crosslinked when it is not detached from the substrate or damaged by the “thumb twist test”. The test is carried out at various speeds of exposure to UV source. The higher the speed the higher the reactivity of the system.
(§3) The products described in the examples were tested both as photoinitiators and sensitizers. For the evaluation as photoinitiator the following formulation is employed (by weight): 3% of derivative of thioxanthone of formula I, 3% of Esacure A 198, up to 100% with cyan ink for off-set printing. For the evaluation as sensitizers the formulation is composed as follows (by weight): 0.5% of derivative of thioxanthone of formula I, 3% of Esacure A 198, 3% of Esacure 1001, up to 100% with cyan ink for off-set printing.
(§4) The resulting mixtures are milled with a three cylinders mill (laboratory scale) and applied on a coated cardboard with a thickness of 3 μm by means of film coater (RK Print Coater Instrument Ltd), then exposed at different speed to a mercury vapors lamp at high pressure 120 W/cm.
(§5) ITX, in the same amounts, is chosen as reference.

[5] = FT-IR degree of polymerization in a pigmented composition (as sensitizer of Esacure 1001); conditions: 0.5% sensitizer, 3% Esacure 1001, 3% Esacure A 198, cyan ink, 3 μm film
Description: The compounds described in the examples were evaluated also as sensitizer in a pigmented composition as described below.
Pigmented photopolymerizable compositions are prepared by mixing 3% by weight of both Esacure 1001 and coinitiator Esacure A 198 (both commercialized by Lamberti S.p.A.), 0.5% by weight of derivatives of thioxanthone of the Examples listed in Table 1 and up to 100% by weight of a cyan ink for off-set inking. ITX is used as reference sensitizer.
The photopolymerizable compositions are milled with a three cylinders mill (laboratory scale) in order to homogenize the mix and applied with a thickness of 3 μm on a soft polyethylene substrate by means of film coater (RK Print Coater Instrument Ltd).
The sample, placed in the sample lodgment of a FT-IR (FT-IR 430-Jasco), is exposed to a Mercury/Xenon Vapors light source at high pressure to 120 W/cm (L8868 Light-cure, Hamamatsu) set at a distance of 8 cm from the sample with an angle of 30°.
IR spectra were acquired at constant time during the photopolymerization and the reduction over the time of the area of the peak at 1408 cm^−1 assigned to the acrylic double bond is determined with the help of a IR software (Perkin Elmer, Spectrum ONE v. 2.0).
This allows to quantify the degree of polymerization over time and therefore the efficiency of the photoinitiator.

[6] = Through-cure (thumb twist test), as photoinitiator; conditions: 3% thioxanthone derivative, 3% Esacure A 198, cyan ink, 3 μm on coated cardboard, Hg lamp 120 W/cm
Description: as §1, §2, §3, §4, §5

| Structure (SMILES) | Peak height [1] [W/g] | ΔH (peak area) [1] [J/g] | % degree of polymerization after 1 sec [2] | % degree of polymerization after 2 sec [2] | % degree of polymerization after 5 sec [2] | Solubility [3] | Through-cure (sensitizer) [4] | % degree of polymerization after 1 sec [5] | % degree of polymerization after 2 sec [5] | % degree of polymerization after 5 sec [5] | ΔH of polymerization of isomer 3 relative to isomer 1 [1] | Reactivity of isomer 3 relative to isomer 1 [1] | Through-cure (photoinitiator) [6] |
| --- | --- | --- | --- | --- | --- | --- | --- | --- | --- | --- | --- | --- | --- |
| CCCCCCCCCCCCOC(=O)c1cccc2sc3ccc(C)cc3c(=O)c12 [Example 8, dodecyl 7-methyl-9-oxo-9H-thioxanthene-1-carboxylate] | 38.4 | 208.5 | – | – | – | – | – | – | – | – | – | – | – |
| Cc1ccc2sc3cc(C(=O)N(CC(C)C)CC(C)C)ccc3c(=O)c2c1 [Example 5, N,N-disobutyl 7-methyl-9-oxo-9H-thioxanthene-3-carboxamide] | 39.0 | 224.8 | 18.0% | 33.7% | 45.9% | 50% | 60 m/min | 22.3% | 36.7% | 45.8% | about 2 | 3.5 times | 90 m/min |
| Cc1ccc2sc3cc(C(=O)N4CCN(C)CC4)ccc3c(=O)c2c1 [Example 6, 4-methyl-piperazinyl 7-methyl-9-oxo-9H-thioxanthene-3-carboxamide] | – | – | – | – | – | 5% | – | – | – | – | – | – | – |
| CCCCCCCCCCCCOC(=O)c1ccc2c(=O)c3cc(C)ccc3sc2c1 [Example 1, dodecyl-7-methyl-9-oxo-9H-thioxanthene-3-carboxylate] | 58.9 | 266.4 | 19.6% | 36.1% | 47.2% | 33% | 53 m/min | 17.8% | 29.9% | 40.7% | 1.2 | about 1.5 times | 85 m/min |
| Cc1ccc2sc3cccc(C(=O)N(CC(C)C)CC(C)C)c3c(=O)c2c1 [Example 7, N,N-diisobutyl-7-methyl-9-oxo-9H-thioxanthene-1-carboxamide] | 11.1 | 111.4 | – | – | – | – | – | – | – | – | – | – | – |
| CC(C)c1ccc2sc3ccccc3c(=O)c2c1 [ITX, isopropyl thioxanthone, reference compound] | – | – | 10.0% | 18.9% | 33.0% | – | 60 m/min | 19.6% | 31.4% | 40.9% | – | – | 95 m/min |
| COC(=O)c1ccc2c(=O)c3cc(C)ccc3sc2c1 [Example 3, methyl 7-methyl-9-oxo-9H-thioxanthene-3-carboxylate] | – | – | Insoluble | Insoluble | Insoluble | insoluble | Insoluble | Insoluble | Insoluble | Insoluble | – | – | Insoluble |
| CCCCCOC(=O)c1ccc2c(=O)c3cc(C)ccc3sc2c1 [Example 2, pentyl 7-methyl-9-oxo-9H-thioxanthene-3-carboxylate] | – | – | 2.5% | 3.1% | 7.2% | 33% | Not reactive | Not reactive | Not reactive | Not reactive | – | – | 5 m/min |
| C=CCOC(=O)c1ccc2c(=O)c3cc(C)ccc3sc2c1 [Example 4, allyl 7-methyl-9-oxo-9H-thioxanthene-3-carboxylate] | – | – | 5.9% | 18.3% | 35.3% | 5% | 60 m/min | 20.6% | 33.2% | 43.2% | – | – | 70 m/min |
